Reference: ChEMBL document CHEMBL1201862, “PubChem BioAssay data set” (2004)
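Step 1: Grow cells in 96-well plates. Step 2: Expose to compound for 48 hours at 5 concentrations. Step 3: Interpolate endpoints linearly; if unreached, use highest concentration. At the GI50, growth is halved.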 Activity calls are given as the source filed them. Cut-off read from the data, not from the text of the source: active = GI50 up to about 1.1 µM and inactive = higher.

Tests used:
Test in all cases: DTP human tumour cell line panel, 48 h
[1] = tested on: K562
[2] = tested on: NCI-H226
[3] = tested on: MOLT-4
[4] = tested on: SF-295
[5] = tested on: LOX IMVI
[6] = tested on: NCI-H460
[7] = tested on: A498
[8] = tested on: MDA-N
[9] = tested on: NCI/ADR-RES
[10] = tested on: COLO 205
[11] = tested on: RPMI-8226
[12] = tested on: MCF7
[13] = tested on: SNB-19
[14] = tested on: UO-31
[15] = tested on: HT-29
[16] = tested on: NCI-H522
[17] = tested on: CCRF-CEM
[18] = tested on: UACC-62
[19] = tested on: OVCAR-8
[20] = tested on: SR

Measured: GI50

Cc1cc(S(=O)(=O)Nc2nc(N)nc(N3N=CCC3C)n2)c(SCC(=O)O)cc1Cl (stereo not given)
active: [14] 0.001 µM
inactive: [1] > 10 µM | [2] > 10 µM | [3] > 10 µM | [4] > 10 µM | [5] > 10 µM | [6] > 10 µM | [7] > 10 µM | [8] > 10 µM | [9] > 10 µM | [10] > 10 µM | [11] > 10 µM | [12] > 10 µM | [13] > 10 µM | [15] > 10 µM | [16] > 10 µM | [17] > 10 µM | [18] > 10 µM | [19] > 10 µM

COC(=O)C1=C(C)C(=O)[C@]23C(CCCC[C@H]12)C(=O)[C@H](C(=O)OC)C3C (stereo not given in full)
inactive: [1] > 100 µM | [2] > 100 µM | [3] > 100 µM | [4] > 100 µM | [5] > 100 µM | [6] > 100 µM | [8] > 100 µM | [9] > 100 µM | [10] > 100 µM | [12] > 100 µM | [13] > 100 µM | [14] > 100 µM | [15] > 100 µM | [20] 50.9 µM | [16] > 100 µM | [17] > 100 µM | [18] > 100 µM | [19] > 100 µM

C1CCNCC1.CN(C)c1ccc(/C=C2/NC(=S)NC2=O)cc1
inactive: [2] 41.1 µM | [3] 28.2 µM | [4] 40.5 µM | [5] 49 µM | [8] 36.3 µM | [9] 77.4 µM | [10] 49.9 µM | [11] 24.5 µM | [12] 62.4 µM | [13] 86.7 µM | [14] 44.5 µM | [15] 34.6 µM | [20] 29.6 µM | [16] 65.2 µM | [17] 24.9 µM | [18] 36.8 µM | [19] 97.9 µM

COc1ccc(Nc2nc3ccccc3nc2-c2cccs2)cc1OC
inactive: [1] > 10 µM | [2] > 10 µM | [3] > 10 µM | [4] > 10 µM | [5] > 10 µM | [6] > 10 µM | [8] > 10 µM | [9] > 10 µM | [10] > 10 µM | [11] > 10 µM | [12] > 10 µM | [13] > 10 µM | [14] > 10 µM | [15] > 10 µM | [20] 5.89 µM | [16] > 10 µM | [17] > 10 µM | [18] > 10 µM | [19] > 10 µM

CC1CCc2sc3nc(S)n(-c4ccccc4)c(=O)c3c2C1 (stereo not given)
inactive: [1] > 100 µM | [2] 48.9 µM | [3] 41.1 µM | [4] 27.7 µM | [5] 47.2 µM | [6] 34.4 µM | [8] > 100 µM | [9] > 100 µM | [10] > 100 µM | [11] 53 µM | [12] 39 µM | [13] 45.5 µM | [14] 15.1 µM | [15] 39.6 µM | [20] 33.4 µM | [16] > 100 µM | [18] 31.3 µM | [19] > 100 µM

COc1ccc(-c2cc(-c3ccc(C)cc3)n(C3OC(COC(C)=O)C(OC(C)=O)C(OC(C)=O)C3OC(C)=O)c(=S)c2C#N)cc1 (stereo not given)
inactive: [1] > 100 µM | [2] > 100 µM | [3] > 100 µM | [4] > 100 µM | [5] > 100 µM | [6] > 100 µM | [8] > 100 µM | [9] > 100 µM | [10] > 100 µM | [11] > 100 µM | [12] > 100 µM | [13] 90.6 µM | [14] > 100 µM | [15] > 100 µM | [20] > 100 µM | [16] > 100 µM | [18] > 100 µM | [19] > 100 µM

N=C(N)NS(=O)(=O)c1ccc(Nc2c3ccccc3nc3c(C(=O)NNCCO)cccc23)cc1
active: [1] 0.055 µM | [2] 0.19 µM | [3] 0.184 µM | [4] 0.407 µM | [5] 0.165 µM | [6] 0.158 µM | [7] > 1 µM | [8] 0.136 µM | [9] > 1 µM | [10] 0.183 µM | [11] 0.137 µM | [12] 0.109 µM | [13] 0.276 µM | [14] 0.416 µM | [15] 0.352 µM | [16] 0.127 µM | [17] 0.0541 µM | [18] 0.27 µM | [19] 0.303 µM

CC(C)OC1OC(CO)C(O)CC1n1cc(F)c(=O)[nH]c1=O (stereo not given)
inactive: [1] 34.4 µM | [2] > 100 µM | [4] > 100 µM | [5] 94 µM | [6] > 100 µM | [7] > 100 µM | [8] > 100 µM | [9] > 100 µM | [10] > 100 µM | [11] 39.4 µM | [12] 46 µM | [13] > 100 µM | [14] > 100 µM | [15] > 100 µM | [16] 16.2 µM | [18] > 100 µM | [19] > 100 µM
